# Test results as given in ChEMBL document CHEMBL2146453, “Synthesis of novel ursolic acid heterocyclic derivatives with improved abilities of antiproliferation and induction of p53, p21waf1 and NOXA in pancreatic cancer cells” (Bioorg Med Chem, 2012).
# What was measured:
# Format in all cases: functional, cell-based
# [1] = system: ASPC1; test: Cytotoxicity against human AsPC1 cells after 72 hrs by MTT assay; settings: ASPC1, 72 h
# [2] = system: PANC-1; test: Cytotoxicity against human PANC1 cells after 72 hrs by MTT assay; settings: PANC-1, 72 h
# [3] = system: MIA PaCa-2; test: Cytotoxicity against human MIAPaCa2 cells after 72 hrs by MTT assay; settings: MIA PaCa-2, 72 h
# [4] = system: HepG2; test: Cytotoxicity against human HepG2 cells after 72 hrs by MTT assay; settings: HepG2, 72 h
# [5] = system: MCF7; test: Cytotoxicity against human MCF7 cells after 72 hrs by MTT assay; settings: MCF7, 72 h
# [6] = system: A549; test: Cytotoxicity against human A549 cells after 72 hrs by MTT assay; settings: A549, 72 h
# [7] = system: PC-3; test: Cytotoxicity against human PC3 cells after 72 hrs by MTT assay; settings: PC-3, 72 h
smiles,measurement,setting,value
C[C@H]1[C@H](C)CC[C@]2(C(=O)n3ccnc3)CC[C@]3(C)C(=CC[C@@H]4[C@@]5(C)CCC(=O)C(C)(C)[C@@H]5CC[C@]43C)[C@H]12,IC50,[1],15.2 µM
COC(=O)[C@]12CC[C@@H](C)[C@H](C)[C@H]1C1=CC(=O)[C@@H]3[C@@]4(C)C/C(=C/O)C(=O)C(C)(C)[C@@H]4CC[C@@]3(C)[C@]1(C)CC2,IC50,[1],9 µM
COC(=O)[C@]12CC[C@@H](C)[C@H](C)[C@H]1C1=CC(=O)[C@@H]3[C@@]4(C)C/C(=C/n5cnnc5)C(=O)C(C)(C)[C@@H]4CC[C@@]3(C)[C@]1(C)CC2,IC50,[1],8.1 µM
same,IC50,[2],12.1 µM
same,IC50,[3],7.8 µM
same,IC50,[4],7.9 µM
same,IC50,[5],12.5 µM
same,IC50,[6],12.9 µM
same,IC50,[7],9.5 µM
CC(=O)O[C@H]1CC[C@]2(C)[C@H]3CC=C4[C@@H]5[C@@H](C)[C@H](C)CC[C@]5(C(=O)n5ccnc5C)CC[C@@]4(C)[C@]3(C)CC[C@H]2C1(C)C,IC50,[1],20.2 µM
C[C@H]1[C@H](C)CC[C@]2(C(=O)n3cnnc3)CC[C@]3(C)C(=CC[C@@H]4[C@@]5(C)C/C(=C/n6cnnc6)C(=O)C(C)(C)[C@@H]5CC[C@]43C)[C@H]12,IC50,[1],3.9 µM
COC(=O)[C@]12CC[C@@H](C)[C@H](C)[C@H]1C1=CC[C@@H]3[C@@]4(C)CC[C@H](O)C(C)(C)[C@@H]4CC[C@@]3(C)[C@]1(C)CC2 [METHYL URSOLATE],IC50,[1],17.7 µM
COC(=O)[C@]12CC[C@@H](C)[C@H](C)[C@H]1C1=CC[C@@H]3[C@@]4(C)C/C(=C/n5ccnc5C)C(=O)C(C)(C)[C@@H]4CC[C@@]3(C)[C@]1(C)CC2,IC50,[1],2.1 µM
same,IC50,[2],5.6 µM
same,IC50,[3],5.6 µM
same,IC50,[4],4 µM
same,IC50,[5],2.2 µM
same,IC50,[6],5.3 µM
same,IC50,[7],3.5 µM
C[C@H]1[C@H](C)CC[C@]2(C(=O)O)CC[C@]3(C)C(=CC[C@@H]4[C@@]5(C)CC[C@H](O)C(C)(C)[C@@H]5CC[C@]43C)[C@H]12 [URSOLIC ACID],IC50,[1],12.6 µM
same,IC50,[2],14.9 µM
same,IC50,[3],10.4 µM
same,IC50,[4],15 µM
same,IC50,[5],12.3 µM
same,IC50,[6],11.4 µM
same,IC50,[7],20.8 µM
CC(=O)O[C@H]1CC[C@]2(C)[C@H]3C(=O)C=C4[C@@H]5[C@@H](C)[C@H](C)CC[C@]5(C(=O)n5ccnc5C)CC[C@@]4(C)[C@]3(C)CC[C@H]2C1(C)C,IC50,[1],15.3 µM
CC(=O)O[C@H]1CC[C@]2(C)[C@H]3CC=C4[C@@H]5[C@@H](C)[C@H](C)CC[C@]5(C(=O)n5cnnc5)CC[C@@]4(C)[C@]3(C)CC[C@H]2C1(C)C,IC50,[1],23.3 µM
CC(=O)O[C@H]1CC[C@]2(C)[C@H]3C(=O)C=C4[C@@H]5[C@@H](C)[C@H](C)CC[C@]5(C(=O)O)CC[C@@]4(C)[C@]3(C)CC[C@H]2C1(C)C [11-OXOURSOLIC ACID ACETATE],IC50,[1],33.5 µM
CC(=O)O[C@H]1CC[C@]2(C)[C@H]3CC=C4[C@@H]5[C@@H](C)[C@H](C)CC[C@]5(C(=O)n5ccnc5)CC[C@@]4(C)[C@]3(C)CC[C@H]2C1(C)C,IC50,[1],15.2 µM
C[C@H]1[C@H](C)CC[C@]2(C(=O)O)CC[C@]3(C)C(=CC[C@@H]4[C@@]5(C)C/C(=C/O)C(=O)C(C)(C)[C@@H]5CC[C@]43C)[C@H]12,IC50,[1],13.4 µM
Cc1nccn1C(=O)[C@]12CC[C@@H](C)[C@H](C)[C@H]1C1=CC(=O)[C@@H]3[C@@]4(C)CCC(=O)C(C)(C)[C@@H]4CC[C@@]3(C)[C@]1(C)CC2,IC50,[1],5.1 µM
C[C@H]1[C@H](C)CC[C@]2(C(=O)n3ccnc3)CC[C@]3(C)C(=CC(=O)[C@@H]4[C@@]5(C)CCC(=O)C(C)(C)[C@@H]5CC[C@]43C)[C@H]12,IC50,[1],11.7 µM
COC(=O)[C@]12CC[C@@H](C)[C@H](C)[C@H]1C1=CC[C@@H]3[C@@]4(C)C/C(=C/O)C(=O)C(C)(C)[C@@H]4CC[C@@]3(C)[C@]1(C)CC2,IC50,[1],7.2 µM
CC(=O)O[C@H]1CC[C@]2(C)[C@H]3C(=O)C=C4[C@@H]5[C@@H](C)[C@H](C)CC[C@]5(C(=O)n5cnnc5)CC[C@@]4(C)[C@]3(C)CC[C@H]2C1(C)C,IC50,[1],10.2 µM
CC(=O)O[C@H]1CC[C@]2(C)[C@H]3C(=O)C=C4[C@@H]5[C@@H](C)[C@H](C)CC[C@]5(C(=O)n5ccnc5)CC[C@@]4(C)[C@]3(C)CC[C@H]2C1(C)C,IC50,[1],13.9 µM
COC(=O)[C@]12CC[C@@H](C)[C@H](C)[C@H]1C1=CC[C@@H]3[C@@]4(C)C/C(=C/n5ccnc5)C(=O)C(C)(C)[C@@H]4CC[C@@]3(C)[C@]1(C)CC2,IC50,[1],5.8 µM
same,IC50,[2],5.1 µM
same,IC50,[3],7.3 µM
same,IC50,[4],2 µM
same,IC50,[5],5.3 µM
same,IC50,[6],5.6 µM
same,IC50,[7],6.8 µM
Cc1nccn1/C=C1/C[C@]2(C)[C@H]3CC=C4[C@@H]5[C@@H](C)[C@H](C)CC[C@]5(C(=O)n5ccnc5C)CC[C@@]4(C)[C@]3(C)CC[C@H]2C(C)(C)C1=O,IC50,[1],11.3 µM
Cc1nccn1C(=O)[C@]12CC[C@@H](C)[C@H](C)[C@H]1C1=CC[C@@H]3[C@@]4(C)CCC(=O)C(C)(C)[C@@H]4CC[C@@]3(C)[C@]1(C)CC2,IC50,[1],19.6 µM
COC(=O)[C@]12CC[C@@H](C)[C@H](C)[C@H]1C1=CC(=O)[C@@H]3[C@@]4(C)C/C(=C/n5ccnc5C)C(=O)C(C)(C)[C@@H]4CC[C@@]3(C)[C@]1(C)CC2,IC50,[1],2.1 µM
same,IC50,[2],14.4 µM
same,IC50,[3],8.3 µM
same,IC50,[4],8.5 µM
same,IC50,[5],3.5 µM
same,IC50,[6],18.7 µM
same,IC50,[7],5.7 µM
C[C@H]1[C@H](C)CC[C@]2(C(=O)n3cnnc3)CC[C@]3(C)C(=CC[C@@H]4[C@@]5(C)CCC(=O)C(C)(C)[C@@H]5CC[C@]43C)[C@H]12,IC50,[1],19.2 µM
C[C@H]1[C@H](C)CC[C@]2(C(=O)n3ccnc3)CC[C@]3(C)C(=CC[C@@H]4[C@@]5(C)C/C(=C/n6ccnc6)C(=O)C(C)(C)[C@@H]5CC[C@]43C)[C@H]12,IC50,[1],5.1 µM
CC(=O)O[C@H]1CC[C@]2(C)[C@H]3CC=C4[C@@H]5[C@@H](C)[C@H](C)CC[C@]5(C(=O)O)CC[C@@]4(C)[C@]3(C)CC[C@H]2C1(C)C [O-ACETYLURSOLIC ACID],IC50,[1],71 µM
C[C@H]1[C@H](C)CC[C@]2(C(=O)O)CC[C@]3(C)C(=CC[C@@H]4[C@@]5(C)CCC(=O)C(C)(C)[C@@H]5CC[C@]43C)[C@H]12 [URSONIC ACID],IC50,[1],24.5 µM
C[C@H]1[C@H](C)CC[C@]2(C(=O)n3cnnc3)CC[C@]3(C)C(=CC(=O)[C@@H]4[C@@]5(C)CCC(=O)C(C)(C)[C@@H]5CC[C@]43C)[C@H]12,IC50,[1],9.9 µM
COC(=O)[C@]12CC[C@@H](C)[C@H](C)[C@H]1C1=CC(=O)[C@@H]3[C@@]4(C)C/C(=C/n5ccnc5)C(=O)C(C)(C)[C@@H]4CC[C@@]3(C)[C@]1(C)CC2,IC50,[1],2.3 µM
same,IC50,[2],18.2 µM
same,IC50,[3],24.3 µM
same,IC50,[4],27.6 µM
same,IC50,[5],9.4 µM
same,IC50,[6],12.2 µM
same,IC50,[7],12.9 µM
C[C@H]1[C@H](C)CC[C@]2(C(=O)O)CC[C@]3(C)C(=CC(=O)[C@@H]4[C@@]5(C)CCC(=O)C(C)(C)[C@@H]5CC[C@]43C)[C@H]12,IC50,[1],54.9 µM
